The structures appear in SMILES notation. Where two headings read alike, the source gives them in different places.

One data set addresses AChE (Rattus norvegicus, UniProt P37136). As to the kind of experiment: biochemical.
A short description of data set [1]: Log P by shake flask method. It counts as physicochemical. The conditions noted are these: octanol / PBS pH = 7.4, shake flask. How it is done: Log P is defined as the logarithm of octanol–water partition coefficient. […] Ultraviolet spectrophotometry was applied to determine the concentration of compounds. Log p values were calculated based on the data in triplicate.

Data set [2] is described as follows: pKa by pH-titration method. It counts as physicochemical. The method, then: pKa is determined by pH-titration method according to the report. The titration curve E vs. VT was recorded and pKa value was calculated.
Another data set deals with BChE (Rattus norvegicus, UniProt Q9JKC1). As to the kind of experiment: biochemical. Further details: species or system Sprague–Dawley rat.
[3] abbreviates: rat brain AChE, Mean ± SD, triplicate.
Setting [4] is: rat serum BChE, Mean ± SD, triplicate.

Sequence of AChE (P37136 32-614): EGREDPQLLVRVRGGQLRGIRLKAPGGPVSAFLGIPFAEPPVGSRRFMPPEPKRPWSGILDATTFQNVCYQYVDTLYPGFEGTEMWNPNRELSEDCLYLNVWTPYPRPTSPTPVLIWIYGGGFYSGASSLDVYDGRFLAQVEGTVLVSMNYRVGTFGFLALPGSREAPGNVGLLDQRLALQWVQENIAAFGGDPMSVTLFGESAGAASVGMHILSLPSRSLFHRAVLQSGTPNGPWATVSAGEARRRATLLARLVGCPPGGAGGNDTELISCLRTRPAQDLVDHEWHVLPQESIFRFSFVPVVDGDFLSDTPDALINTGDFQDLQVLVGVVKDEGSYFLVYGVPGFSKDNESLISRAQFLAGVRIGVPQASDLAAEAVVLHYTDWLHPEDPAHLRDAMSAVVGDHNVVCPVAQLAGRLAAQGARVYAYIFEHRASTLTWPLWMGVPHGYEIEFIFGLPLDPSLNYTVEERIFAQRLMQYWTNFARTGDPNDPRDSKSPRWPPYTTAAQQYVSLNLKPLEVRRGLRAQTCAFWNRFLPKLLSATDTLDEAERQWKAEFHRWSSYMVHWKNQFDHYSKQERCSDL
Sequence of BChE (Q9JKC1 24-597): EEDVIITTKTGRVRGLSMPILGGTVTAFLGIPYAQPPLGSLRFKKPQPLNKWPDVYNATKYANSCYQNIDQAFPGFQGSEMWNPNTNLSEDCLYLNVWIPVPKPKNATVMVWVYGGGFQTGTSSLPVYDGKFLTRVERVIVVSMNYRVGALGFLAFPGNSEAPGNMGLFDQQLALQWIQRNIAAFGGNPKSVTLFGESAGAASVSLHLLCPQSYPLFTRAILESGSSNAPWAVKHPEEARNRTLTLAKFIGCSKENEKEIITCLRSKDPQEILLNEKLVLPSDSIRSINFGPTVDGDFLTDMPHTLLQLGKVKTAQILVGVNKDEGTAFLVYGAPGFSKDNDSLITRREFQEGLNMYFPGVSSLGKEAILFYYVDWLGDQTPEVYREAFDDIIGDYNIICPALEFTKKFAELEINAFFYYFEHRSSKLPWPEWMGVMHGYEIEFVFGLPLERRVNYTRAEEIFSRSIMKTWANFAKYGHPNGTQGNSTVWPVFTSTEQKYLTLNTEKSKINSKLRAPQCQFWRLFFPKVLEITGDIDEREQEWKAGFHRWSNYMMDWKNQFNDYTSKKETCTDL

With `C/C=C/C=C/C(=O)Nc1ccc(OCCN2CCCCC2)cc1` [Compound 18f], the “Selectivity for AChE” value on AChE (IC50 (BChE)/IC50 (AChE)) turned out to be 22.1. Besides, the figures for the half-maximal inhibitory concentration (IC50) at AChE (setting [3]) and on BChE (setting [4]) were 12.3 ± 0.76 µM and 271 ± 4.56 µM, respectively. Also, the logP in data set [1] came to 1.61. The pKa in data set [2] (read-out: pKa) turned out to be 7.06.
For `CCN(C)C(=O)Oc1cccc([C@H](C)N(C)C)c1` [Rivastigmine, reference compound], the logP in data set [1] was determined as 1.68. Moreover, the pKa in data set [2] (read-out: pKa) was 5.93.
For `CN(C)CCOc1ccc(NC(=O)C=Cc2ccccc2)cc1` [Compound 6d], the “Selectivity for AChE” value at AChE (IC50 (BChE)/IC50 (AChE)) is recorded as 22.8. Besides, the half-maximal inhibitory concentration (IC50) against AChE (setting [3]) is 4.98 ± 0.31 µM; on BChE (setting [4]), 113 ± 1.36 µM. The logP in data set [1] worked out at 1.54. The pKa in data set [2] (read-out: pKa) turned out to be 7.18.
On to `C/C=C/C=C/C(=O)Nc1ccccc1OCCN(C)C` [Compound 16d], for which, at AChE (IC50 (BChE)/IC50 (AChE)), the “Selectivity for AChE” value turned out to be 1.11. Moreover, the IC50 on AChE (setting [3]) worked out at 30.7 ± 2.34 µM; against BChE (setting [4]), 34.1 ± 1.85 µM. This compound also came in with a logP in data set [1] of 0.63. Besides, the pKa in data set [2] (read-out: pKa) worked out at 7.25.
As to `C/C=C/C=C/C(=O)Nc1cccc(OCCN2CCCC2)c1` [Compound 17g], the “Selectivity for AChE” value on AChE (IC50 (BChE)/IC50 (AChE)) is on record as 1.51. For the same compound, the IC50 at AChE (setting [3]) came out at 18.8 ± 0.63 µM; at BChE (setting [4]), 28.5 ± 1.24 µM. Also, the logP in data set [1] came out at 1.41. Further, the pKa in data set [2] (read-out: pKa) amounted to 7.06.
In the case of `O=C(CCc1ccccc1)Nc1ccccc1OCCN1CCCC1` [Compound 10g], on AChE (IC50 (BChE)/IC50 (AChE)), the “Selectivity for AChE” value is on record as 0.01. Further, the figures for the IC50 against AChE (setting [3]) and against BChE (setting [4]) were 209 ± 2.33 µM and 1.87 ± 0.16 µM, respectively. The compound also returned a logP in data set [1] of 1.3. In addition, in data set [2] (read-out: pKa), the pKa was determined as 6.88.
Turning to `CCCCCC(=O)Nc1ccc(OCCN2CCCCC2)cc1` [Compound 24f], the “Selectivity for AChE” value on AChE (IC50 (BChE)/IC50 (AChE)) is on record as 0.54. Moreover, the IC50 on AChE (setting [3]) was determined as 31.7 ± 2.74 µM; against BChE (setting [4]), 17 ± 2.03 µM. This compound returned a lipophilicity (logP) in data set [1] of 1.54. Also, the pKa in data set [2] (read-out: pKa) was determined as 7.16.
Take `O=C(CCc1ccccc1)Nc1ccc(OCCN2CCCCC2)cc1` [Compound 12f]: on AChE (IC50 (BChE)/IC50 (AChE)), the “Selectivity for AChE” value came out at 6.60. Besides, the figures for the IC50 against AChE (setting [3]) and on BChE (setting [4]) were 34.3 ± 0.89 µM and 226 ± 5.78 µM, respectively. The logP in data set [1] was 1.82. Further, the pKa in data set [2] (read-out: pKa) was 7.13.
The corresponding values for `C/C=C/C=C/C(=O)Nc1ccccc1OCCN1CCCC1` [Compound 16g] are 0.08, 278 ± 4.58 µM, 21.9 ± 0.99 µM, 0.97 and 7.32.
For the compound `O=C(CCc1ccccc1)Nc1cccc(OCCN2CCCC2)c1` [Compound 11g], the “Selectivity for AChE” value on AChE (IC50 (BChE)/IC50 (AChE)) was 1.43. In addition, the IC50 on AChE (setting [3]) worked out at 58.6 ± 3.85 µM; on BChE (setting [4]), 84 ± 2.12 µM. The compound also showed a logP in data set [1] of 2.58. In data set [2] (read-out: pKa), the pKa came to 6.45.
In the case of `CCCCCC(=O)Nc1ccccc1OCCN(C)C` [Compound 22d], the figures for the IC50 against AChE and at BChE were 186 ± 8.22 µM and 26.6 ± 1.36 µM, respectively. Besides, the “Selectivity for AChE” value at AChE turned out to be 0.14. Also, the “Log P” value in data set [1] worked out at 1.23. The pKa in data set [2] is reported as 7.32.
On to `C/C=C/C=C/C(=O)Nc1ccccc1OCCN(CC)CC` [Compound 16e], for which the IC50 was > 500 µM against AChE (setting [3]) and 91.8 ± 1.45 µM against BChE (setting [4]). Moreover, the logP in data set [1] came to 2.18. Also, the pKa in data set [2] (read-out: pKa) amounted to 7.53.
On to `O=C(C=Cc1ccccc1)Nc1cccc(OCCN2CCCCC2)c1` [Compound 5f], for which the “Selectivity for AChE” value at AChE (IC50 (BChE)/IC50 (AChE)) turned out to be 0.16. Besides, the IC50 worked out at 20.5 ± 1.01 µM on AChE (setting [3]) and 3.26 ± 0.26 µM at BChE (setting [4]). Further, the logP in data set [1] amounted to 1.24. Besides, in data set [2] (read-out: pKa), the pKa was 6.99.
Turning to `CCN(CC)CCOc1ccc(NC(=O)C=Cc2ccccc2)cc1` [Compound 6e], the “Selectivity for AChE” value at AChE (IC50 (BChE)/IC50 (AChE)) was determined as 4.16. The IC50 turned out to be 10.6 ± 0.43 µM on AChE (setting [3]) and 44 ± 3.29 µM on BChE (setting [4]). Further, the logP in data set [1] is 1.22. For the same compound, in data set [2] (read-out: pKa), the pKa came to 6.97.
For the compound `CCN(CC)CCOc1ccccc1NC(=O)C=Cc1ccccc1` [Compound 4e], the “Selectivity for AChE” value on AChE (IC50 (BChE)/IC50 (AChE)) amounted to 0.04. The IC50 against AChE (setting [3]) came out at 197 ± 6.81 µM; at BChE (setting [4]) it was 6.99 ± 0.29 µM. The same compound registered a logP in data set [1] of 2.81. In data set [2] (read-out: pKa), the pKa was 7.28.
With `O=C(C=Cc1ccccc1)Nc1ccc(OCCN2CCCCC2)cc1` [Compound 6f], the half-inhibitory concentration (IC50) was 4.35 ± 0.36 µM on AChE (setting [3]) and 94.5 ± 8.74 µM against BChE (setting [4]). Also, the logP in data set [1] is 1.4. Further, the pKa in data set [2] (read-out: pKa) is 7.29.
In the case of `CN(C)CCOc1ccc(NC(=O)CCc2ccccc2)cc1` [Compound 12d], on AChE (IC50 (BChE)/IC50 (AChE)), the “Selectivity for AChE” value is listed as 2.82. For the same compound, the values for the IC50 on AChE (setting [3]) and on BChE (setting [4]) were 46.8 ± 1.29 µM and 132 ± 5.21 µM, respectively. In data set [1], the log partition coefficient (logP) was determined as 2.44. Besides, in data set [2] (read-out: pKa), the pKa is 7.26.
The matching figures for `CCCCCC(=O)Nc1ccccc1OCCN(CC)CC` [Compound 22e]: <0.07, > 500 µM, 37.2 ± 2.24 µM, 1.67 and 7.08.

What is called IC50 is the concentration at which inhibition is half-maximal. One may read the logP as a log measure of how a compound divides between an organic and an aqueous phase. The low end stands for lower lipophilicity, the high end for higher lipophilicity. Usually pKa stands for the pH at which an ionisable group is half protonated. One may read the Log P as a log measure of how a compound divides between an organic and an aqueous phase. Low values mean lower lipophilicity, high ones higher lipophilicity.

Values taken from PMC6010128, “Structure–activity relationship investigation of tertiary amine derivatives of cinnamic acid as acetylcholinesterase and butyrylcholinesterase inhibitors: compared with that of phenylpropionic acid, sorbic acid and hexanoic acid” (Journal of Enzyme Inhibition and Medicinal Chemistry, 2018).
